# Measurements taken from patent publication US9458137B2, “Substituted indol-5-ol derivatives and their therapeutical applications” (NantBioScience, Inc., priority 2012, dated 2016).
# Tested on: abl kinase
# Assay: abl kinase inhibition assay
# Format: biochemical
row,Compound,% Inhibition @1 μM Abl [%]
1,Cc1cc2c(F)c(Oc3nc(Nc4cc(C5CC5)[nH]n4)cc(N4CCN(C)CC4)n3)ccc2[nH]1 [Example 10],112
2,"Cc1cc2c(F)c(Oc3nc(Nc4cc(C5CC5)[nH]n4)cc(N4CCNCC4)n3)ccc2[nH]1 [Example 11, N-(5-cyclopropyl-1H-pyrazol-3-yl)-2-((4-fluoro-2-methyl-1H-indol-5-yl)oxy)-6-(piperazin-1-yl)pyrimidin-4-amine]",111
3,Cc1cc2c(F)c(Oc3nc(Nc4cc(C5CC5)[nH]n4)cc(N4CCN(CCO)CC4)n3)ccc2[nH]1 [Example 12],112
4,Cc1cc2c(F)c(Oc3nc(Nc4cc(C5CC5)[nH]n4)cc(N4CCOCC4)n3)ccc2[nH]1 [Example 13],112
5,Cc1cc2c(F)c(Oc3nc(Nc4cc(C5CC5)[nH]n4)cc(N4CC(O)C4)n3)ccc2[nH]1 [Example 15],108
6,COC1CCN(c2cc(Nc3cc(C4CC4)[nH]n3)nc(Oc3ccc4[nH]c(C)cc4c3F)n2)C1 (centres unmarked) [Example 16],103
7,Cc1cc2c(F)c(Oc3nc(Nc4cc(C5CC5)[nH]n4)cc(N4CCC(N(C)C)C4)n3)ccc2[nH]1 (centres unmarked) [Example 17],108
8,CC(=O)N1CCN(c2cc(Nc3cc(C4CC4)[nH]n3)nc(Oc3ccc4[nH]c(C)cc4c3F)n2)CC1 [Example 18],107
9,Cc1cc2c(F)c(Oc3nc(Nc4cc(C5CC5)[nH]n4)cc(N4CCNC(=O)C4)n3)ccc2[nH]1 [Example 19],108
10,Cc1cc2c(F)c(Oc3nc(Nc4cc(C5CC5)[nH]n4)cc(N4C[C@@H](C)N[C@@H](C)C4)n3)ccc2[nH]1 [Example 20],107
11,Cc1cc2c(F)c(Oc3nc(Nc4cc(C5CC5)[nH]n4)cc(N4CCC(O)CC4)n3)ccc2[nH]1 [Example 21],107
12,Cc1cc2c(F)c(Oc3nc(Nc4cc(C5CC5)[nH]n4)cc(N4CCC(F)CC4)n3)ccc2[nH]1 [Example 22],108
13,Cc1cc2c(F)c(Oc3nc(Nc4cc(C5CC5)[nH]n4)cc(N4CCN(S(C)(=O)=O)CC4)n3)ccc2[nH]1 [Example 23],108
14,Cc1cc2c(F)c(Oc3nc(Nc4cc(C5CC5)[nH]n4)cc(N4CCN(c5ccccn5)CC4)n3)ccc2[nH]1 [Example 25],108
15,Cc1cc2c(F)c(Oc3nc(Nc4cc(C5CC5)[nH]n4)cc(N4CCN(c5cccnc5)CC4)n3)ccc2[nH]1 [Example 26],109
16,Cc1cc2c(F)c(Oc3nc(Nc4cc(C5CC5)[nH]n4)cc(N4CCN(c5ccncc5)CC4)n3)ccc2[nH]1 [Example 27],108
17,COCCN1CCN(c2cc(Nc3cc(C4CC4)[nH]n3)nc(Oc3ccc4[nH]c(C)cc4c3F)n2)CC1 [Example 28],108
18,Cc1cc2c(F)c(Oc3nc(Nc4cc(C5CC5)[nH]n4)cc(N4CCOC(CN(C)C)C4)n3)ccc2[nH]1 (centres unmarked) [Example 30],110
19,CCN1CCN(c2cc(Nc3cc(C4CC4)[nH]n3)nc(Oc3ccc4[nH]c(C)cc4c3F)n2)CC1 [Example 31],115
20,Cc1cc2c(F)c(Oc3nc(Nc4cc(C5CC5)[nH]n4)cc(N4CCN(CC(F)(F)F)CC4)n3)ccc2[nH]1 [Example 38],108
21,Cc1cc2c(F)c(Oc3nc(Nc4cc(C5CC5)[nH]n4)cc(N4CCOC(CN)C4)n3)ccc2[nH]1 (centres unmarked) [Example 39],110
22,CCC1CN(c2cc(Nc3cc(C4CC4)[nH]n3)nc(Oc3ccc4[nH]c(C)cc4c3F)n2)CCN1 (centres unmarked) [Example 41],108
23,Cc1cc2c(F)c(Oc3nc(Nc4cc(C5CC5)[nH]n4)cc(N4CCN(CCN(C)C)CC4)n3)ccc2[nH]1 [Example 42],110
24,Cc1cc2c(F)c(Oc3nc(Nc4cc(C5CC5)[nH]n4)cc(N4CCNC(CO)C4)n3)ccc2[nH]1 (centres unmarked) [Example 43],111

row,Compound,% Inhibition @1 μM Abl [%]
1,COCC1CCN(c2cc(Nc3cc(C4CC4)[nH]n3)nc(Oc3ccc4[nH]c(C)cc4c3F)n2)C1 (centres unmarked) [Example 44],94
2,Cc1cc2c(F)c(Oc3nc(Nc4cc(C5CC5)[nH]n4)cc(N4CCN(CCF)CC4)n3)ccc2[nH]1 [Example 45],107
3,C/C=C/c1cc(Nc2cc(N3CCN(C)CC3)nc(Oc3ccc4[nH]c(C)cc4c3F)n2)n[nH]1 [Example 53],109
4,C/C=C/c1cc(Nc2cc(N3CCN(CCOC)CC3)nc(Oc3ccc4[nH]c(C)cc4c3F)n2)n[nH]1 [Example 54],108
5,C/C=C/c1cc(Nc2cc(N3CCN(S(C)(=O)=O)CC3)nc(Oc3ccc4[nH]c(C)cc4c3F)n2)n[nH]1 [Example 55],110
6,C/C=C/c1cc(Nc2cc(N3CCN(C(C)=O)CC3)nc(Oc3ccc4[nH]c(C)cc4c3F)n2)n[nH]1 [Example 56],111
7,C/C=C/c1cc(Nc2cc(N3CCS(=O)(=O)CC3)nc(Oc3ccc4[nH]c(C)cc4c3F)n2)n[nH]1 [Example 57],111
8,C/C=C/c1cc(Nc2cc(N3CCC(OC)CC3)nc(Oc3ccc4[nH]c(C)cc4c3F)n2)n[nH]1 [Example 58],112
9,C/C=C/c1cc(Nc2cc(N3CCC(O)CC3)nc(Oc3ccc4[nH]c(C)cc4c3F)n2)n[nH]1 [Example 59],112
10,C/C=C/c1cc(Nc2cc(N3CCC(OC)C3)nc(Oc3ccc4[nH]c(C)cc4c3F)n2)n[nH]1 (centres unmarked) [Example 60],111
11,C/C=C/c1cc(Nc2cc(N3CCC(O)C3)nc(Oc3ccc4[nH]c(C)cc4c3F)n2)n[nH]1 (centres unmarked) [Example 61],112
12,C/C=C/c1cc(Nc2cc(N3CCC(N(CC)CC)C3)nc(Oc3ccc4[nH]c(C)cc4c3F)n2)n[nH]1 (centres unmarked) [Example 62],111
13,C/C=C/c1cc(Nc2cc(N3CCOCC3)nc(Oc3ccc4[nH]c(C)cc4c3F)n2)n[nH]1 [Example 67],112
14,C/C=C/c1cc(Nc2cc(N3CCNCC3)nc(Oc3ccc4[nH]c(C)cc4c3F)n2)n[nH]1 [Example 68],107
15,C/C=C/c1cc(Nc2cc(N3CCN(CCF)CC3)nc(Oc3ccc4[nH]c(C)cc4c3F)n2)n[nH]1 [Example 74],111
16,Cc1cc2c(F)c(Oc3nc(Nc4cc(C5CC5)[nH]n4)cc(N4CCN(C)CC4)n3)cc(F)c2[nH]1 [Example 81],110
17,Cc1cc2c(F)c(Oc3nc(Nc4cc(C5CC5)[nH]n4)cc(N4CCNCC4)n3)cc(F)c2[nH]1 [Example 82],106
18,Cc1cc2c(F)c(Oc3nc(Nc4cc(C5CC5)[nH]n4)cc(N4CCN(CCO)CC4)n3)cc(F)c2[nH]1 [Example 83],110
19,Cc1cc2c(F)c(Oc3nc(Nc4cc(C5CC5)[nH]n4)cc(N4CCOCC4)n3)cc(F)c2[nH]1 [Example 84],103
20,C/C=C/c1cc(Nc2cc(N3CCN(C)CC3)nc(Oc3cc(F)c4[nH]c(C)cc4c3F)n2)n[nH]1 [Example 87],112
21,C/C=C/c1cc(Nc2cc(N3CCN(CCO)CC3)nc(Oc3cc(F)c4[nH]c(C)cc4c3F)n2)n[nH]1 [Example 88],113
22,C/C=C/c1cc(Nc2cc(N3CCOCC3)nc(Oc3cc(F)c4[nH]c(C)cc4c3F)n2)n[nH]1 [Example 89],112
23,C/C=C/c1cc(Nc2cc(N3CCNCC3)nc(Oc3cc(F)c4[nH]c(C)cc4c3F)n2)n[nH]1 [Example 90],112
